Source: patent US20260226493A1, “HERBICIDE RESISTANT PLANTS” (SYNGENTA CROP PROTECTION AG, priority 2023, published 2026)

Tested on: D4539 (Escherichia coli MTP BioA) containing tobacco plants
Experiment: Visual herbicide damage score on transgenic tobacco D4539 (pBin TMV MTP EcBioA)
Type: in vivo
Conditions: 600 gai/ha
Source text: In order to determine if the overexpressed gene detailed in Example 3 confers resistance to BIO3-BIO1 inhibiting compounds when expressed in plants, GM tobacco lines were produced and tested with BIO3-BIO1 inhibiting compounds. Transgenic tobacco plants expressing the Escherichia coli BioA gene with (SEQ ID NO:203) and without a mitochondrial signal peptide (SEQ ID NO: 202).
Populations of transgenic tobacco comprising 20-30 transgenic events per plant transformation constructs were generated as described in Example 1. These lines were clonally propagated and 1 clone per event was sprayed with 600 g ai/ha compound L or A+0.2% Genapol X080 with a spray volume of 200 L/Ha (“g ai/ha” refers to grams of active compound per hectare).
[…] A score of 0 indicates no visible damage or stunting whereas a score of 100 indicates a complete death of the plant. 20 transgenic events (i.e. individual transgenic plants) from each GM tobacco line were transplanted to soil 1 week prior to spraying with BIO3-BIO1 inhibiting compounds. WT tobacco was included as a control.

`CCOC(=O)c1nn(-c2ccc3c(c2)OC(F)(F)C(F)(F)O3)c2cccc(C(C)=O)c2c1=O` [Compound A, ethyl 5-acetyl-4-oxo-1-(2,2,3,3-tetrafluoro-1,4-benzodioxin-6-yl)cinnoline-3-carboxylate] was tested, and the “percentage of damage (herbicide damage score)” value (“percentage of damage” below) (D4539 event 8385, 7 DAT) was 5%, the “percentage of damage” value (D4539 event 8385, 14 DAT) was 0% and the “percentage of damage” value (D4539 event 8385, 21 DAT) was 0%. The “percentage of damage” value (D4539 event 8386, 7 DAT) was 3%, the “percentage of damage” value (D4539 event 8386, 14 DAT) was 0% and the “percentage of damage” value (D4539 event 8386, 21 DAT) was 0%. For the same compound, the “percentage of damage” value (D4539 event 8399, 7 DAT) was 2%, the “percentage of damage” value (D4539 event 8399, 14 DAT) was 0% and the “percentage of damage” value (D4539 event 8399, 21 DAT) was 0%. For the same compound, the “percentage of damage” value (D4539 event 8402, 7 DAT) was 2%, the “percentage of damage” value (D4539 event 8402, 14 DAT) was 0% and the “percentage of damage” value (D4539 event 8402, 21 DAT) was 0%. The “percentage of damage” value (D4539 event 8414, 7 DAT) was 7%, the “percentage of damage” value (D4539 event 8414, 14 DAT) was 30% and the “percentage of damage” value (D4539 event 8414, 21 DAT) was 35%. The “percentage of damage” value (D4539 event 8415, 7 DAT) was 7%, the “percentage of damage” value (D4539 event 8415, 14 DAT) was 0% and the “percentage of damage” value (D4539 event 8415, 21 DAT) was 0%. The “percentage of damage” value (D4539 event 8417, 7 DAT) was 2%, the “percentage of damage” value (D4539 event 8417, 14 DAT) was 5% and the “percentage of damage” value (D4539 event 8417, 21 DAT) was 10%. The “percentage of damage” value (D4539 event 8418, 7 DAT) was 4%, the “percentage of damage” value (D4539 event 8418, 14 DAT) was 10% and the “percentage of damage” value (D4539 event 8418, 21 DAT) was 20%. The “percentage of damage” value (D4539 event 8423, 7 DAT) was 2%, the “percentage of damage” value (D4539 event 8423, 14 DAT) was 20% and the “percentage of damage” value (D4539 event 8423, 21 DAT) was 30%. The “percentage of damage” value (D4539 event 8424, 7 DAT) was 55%, the “percentage of damage” value (D4539 event 8424, 14 DAT) was 80% and the “percentage of damage” value (D4539 event 8424, 21 DAT) was 85%. For the same compound, the “percentage of damage” value (D4539 event 8426, 7 DAT) was 2%, the “percentage of damage” value (D4539 event 8426, 14 DAT) was 0% and the “percentage of damage” value (D4539 event 8426, 21 DAT) was 0%. For the same compound, the “percentage of damage” value (D4539 event 8433, 7 DAT) was 4%, the “percentage of damage” value (D4539 event 8433, 14 DAT) was 0% and the “percentage of damage” value (D4539 event 8433, 21 DAT) was 0%. The “percentage of damage” value (D4539 event 8434, 7 DAT) was 4%, the “percentage of damage” value (D4539 event 8434, 14 DAT) was 5% and the “percentage of damage” value (D4539 event 8434, 21 DAT) was 15%. The “percentage of damage” value (D4539 event 8438, 7 DAT) was 10%, the “percentage of damage” value (D4539 event 8438, 14 DAT) was 75% and the “percentage of damage” value (D4539 event 8438, 21 DAT) was 65%. For the same compound, the “percentage of damage” value (D4539 event 8439, 7 DAT) was 2%, the “percentage of damage” value (D4539 event 8439, 14 DAT) was 10% and the “percentage of damage” value (D4539 event 8439, 21 DAT) was 0%. The “percentage of damage” value (D4539 event 8447, 7 DAT) was 2%, the “percentage of damage” value (D4539 event 8447, 14 DAT) was 0% and the “percentage of damage” value (D4539 event 8447, 21 DAT) was 0%. For the same compound, the “percentage of damage” value (D4539 event 8448, 7 DAT) was 2%, the “percentage of damage” value (D4539 event 8448, 14 DAT) was 0% and the “percentage of damage” value (D4539 event 8448, 21 DAT) was 0%. For the same compound, the “percentage of damage” value (D4539 event 8460, 7 DAT) was 3%, the “percentage of damage” value (D4539 event 8460, 14 DAT) was 0% and the “percentage of damage” value (D4539 event 8460, 21 DAT) was 0%. The “percentage of damage” value (D4539 event 8461, 7 DAT) was 15%, the “percentage of damage” value (D4539 event 8461, 14 DAT) was 80% and the “percentage of damage” value (D4539 event 8461, 21 DAT) was 85%. For the same compound, the “percentage of damage” value (D4539 event 8462, 7 DAT) was 2%, the “percentage of damage” value (D4539 event 8462, 14 DAT) was 0% and the “percentage of damage” value (D4539 event 8462, 21 DAT) was 0%.
